Test system: Aβ accumulation in cultured nerve cells (CHP212 cells)
Experiment: Measurement of fluctuation in the amount of Aβ accumulation in cultured nerve cells
Format: cell-based
Conditions: human neuroblastoma CHP212 cells; Aβ in the medium by ELISA (Amyloid β1-42 kit) 48 hours after addition of test substance; 10^−11 M to 10^−6 M; versus DMSO control (100%)
Excerpt: FIG. 1 is a diagram showing results of measuring fluctuation caused by a test substance of the formula (II) in the amount of Aβ accumulation in cultured nerve cells (CHP212 cells).
In the diagram, each column represents, starting from the left, a result of measurement obtained in a control well to which only a solvent (DMSO) has been added, in a well to which the test substance has been added so that its final concentration can be 10^−11 M (10^−11 M), in a well to which the test substance has been added so that its final concentration can be 10^−10 M (10^−10 M), in a well to which the test substance A has been added so that its final concentration can be 10^−9 M (10^−9 M), in a well to which the test substance has been added so that its final concentration can be 10^−8 M (10^−8 M), in a well to which the test substance has been added so that its final concentration can be 10^−7 M (10^−7 M), and in a well to which the test substance has been added so that its final concentration can be 10^−6 M (10^−6 M). The results are shown in % by setting a result obtained in a control well to which only a solvent (DMSO) has been added as 100%. […]

**Q.** For `CCCN(CC1CC1)c1ccc(C#N)c(C(F)(F)F)c1` [formula (II)], which “amount of Aβ accumulation” value is on record?
**A.** Its value is “markedly decreased”.

— patent publication US20100222434A1, “PHARMACEUTICAL COMPOSITION FOR […]-BETA PROTEIN ACCUMULATION” (Sumitomo Chemical Company, Limited, priority 2007, published 2010)
